Measurements reported in publication PMC9226124, “Macrocycle-stabilization of its interaction with 14-3-3 increases plasma membrane localization and activity of CFTR” (Nature Communications, 2022).
Where “and” joins values, the source holds several entries; their conditions need not be identical. Equal entries are not always repeated.

Key:
[1] = target: T1, 14-3-3β/CFTRpS753pS768 complex (Homo sapiens, UniProt P13569+P31946); experiment: Dose-response fluorescence polarization (FP) assay, compound titration; assay type: binding; settings: for EC50: 14-3-3β 10 μM, labeled CFTRpS753pS768 100 nM, read-out: EC50; for FP signal: With 14-3-3
T1 construct: His6 (cleaved yes); made in house; peptide synthetic
Experimental: The 14-3-3β concentration used for the FP screening assay was 10 μM (dashed line). c HTS FP assay of the Cyclenium library. The samples contain 100 nM of FITC-CFTR_pS753pS768 peptide, 10 μM 14-3-3β, and 50 μM compound. FC-A (100 µM) was added as a positive control and DMSO as the negative control. Hit compounds are defined as a polarization increase which is higher than 20% of the response of FC-A. Red squares are compounds that appeared positive in the negative control without 14-3-3. […] Background polarization was subtracted from all values, n = 3 technical replicates. Compounds selected for further analysis are indicated with an asterisk. e Polarization in the absence of 14-3-3. […] Source data are provided as a Source Data file. […]
The FITC-labeled peptides were dissolved in FP buffer (10 mM HEPES pH 7.4, 150 mM NaCl, 0.1% Tween20, 1 mg/mL BSA) to a final concentration of 100 nM or 10 nM. For the dose-response assays, a 14-3-3β concentration of 10 μM was used while titrating the compounds in a two-times dilution series and, for the other assays, a dilution series of 14-3-3β was made with constant concentration of compound. The dilution series were made in 384 Corning Black Round Bottom well plates and their polarization was measured with a Tecan Infinite F500 plate reader (ex. = 485 nm, em. = 535 nm). The method of fitting of the curves was: “log(agonist) vs. response – Variable slope (four parameters)” from GraphPad Prism. The equation is Y = Bottom + (Top-Bottom)/(1 + 10^((LogEC50-X)*HillSlope)).

[2] = target: T1, 14-3-3β/CFTRpS753pS768 complex; experiment: FP assay, 14-3-3β titration at constant compound concentration (apparent KD); assay type: binding
Experimental: FC-A (100 µM) was added as a positive control and DMSO as the negative control. […] Background polarization was subtracted from all values, n = 3 technical replicates. […] Source data are provided as a Source Data file. […]
The FITC-labeled peptides were dissolved in FP buffer (10 mM HEPES pH 7.4, 150 mM NaCl, 0.1% Tween20, 1 mg/mL BSA) to a final concentration of 100 nM or 10 nM. […] The dilution series were made in 384 Corning Black Round Bottom well plates and their polarization was measured with a Tecan Infinite F500 plate reader (ex. = 485 nm, em. = 535 nm). The method of fitting of the curves was: “log(agonist) vs. response – Variable slope (four parameters)” from GraphPad Prism. The equation is Y = Bottom + (Top-Bottom)/(1 + 10^((LogEC50-X)*HillSlope)).
from the hit validation library.
f the compound, 100 µM FC-A, or both compound and FC-A, 100 µM each. Background polarization was subtracted f
rom all values, n=3 technical replicates.
Source data are provided as a Source Data file.

[3] = CY compound (100 μM), 14-3-3β concentration 1.5625e-5 M
[4] = CY compound (100 μM), 14-3-3β concentration 3.125e-5 M
[5] = CY compound (100 μM), 14-3-3β concentration 6.25e-5 M
[6] = CY compound (100 μM), 14-3-3β concentration 0.000125 M
[7] = CY compound (100 μM), 14-3-3β concentration 0.00025 M
[8] = CY compound (100 μM), 14-3-3β concentration 0.0005 M
[9] = FC-A + CY compound, 14-3-3β concentration 1.5625e-5 M
[10] = FC-A + CY compound, 14-3-3β concentration 3.125e-5 M
[11] = FC-A + CY compound, 14-3-3β concentration 6.25e-5 M
[12] = FC-A + CY compound, 14-3-3β concentration 0.000125 M
[13] = FC-A + CY compound, 14-3-3β concentration 0.00025 M
[14] = FC-A + CY compound, 14-3-3β concentration 0.0005 M

T1 sequence (P31946 whole entry): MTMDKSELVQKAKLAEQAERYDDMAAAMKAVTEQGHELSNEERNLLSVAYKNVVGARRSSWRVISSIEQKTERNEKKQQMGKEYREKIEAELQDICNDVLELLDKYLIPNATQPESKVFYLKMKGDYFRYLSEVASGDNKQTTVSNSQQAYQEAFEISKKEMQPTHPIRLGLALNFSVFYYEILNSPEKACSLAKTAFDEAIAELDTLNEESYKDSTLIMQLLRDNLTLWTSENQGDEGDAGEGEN
T1 sequence (P13569 747-774 limits assumed): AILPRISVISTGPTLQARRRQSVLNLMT

Molecule `CN1CC(=O)NC(CCCNC(=N)N)C(=O)NC(CCC(N)=O)C(=O)NC(CCCNC(=N)N)C(=O)NCc2ccccc2-c2cccc(c2)C1` (stereo not drawn) [CY007491] has an EC50 [1] of 244 µM, an FP signal ([1]; compound 476.8 pM) of 4 and an FP signal ([1]; compound 953.7 pM) of 5. For the same molecule, the FP signal ([1]; compound 1.90735e-9 M) was 5, the FP signal ([1]; compound 3.8147e-9 M) was 6 and the FP signal ([1]; compound 7.6294e-9 M) was 4. For the same molecule, the FP signal ([1]; compound 1.52588e-8 M) was 6, the FP signal ([1]; compound 3.05176e-8 M) was 3 and the FP signal ([1]; compound 6.10352e-8 M) was 5. For the same molecule, the FP signal ([1]; compound 1.2207e-7 M) was 8, the FP signal ([1]; compound 2.44141e-7 M) was 6 and the FP signal ([1]; compound 4.88281e-7 M) was 5. It also gave an FP signal ([1]; compound 9.76563e-7 M) of 5, an FP signal ([1]; compound 1.95313e-6 M) of 6 and an FP signal ([1]; compound 3.90625e-6 M) of 7. It also gave an FP signal ([1]; compound 7.8125e-6 M) of 7, an FP signal ([1]; compound 1.5625e-5 M) of 9 and an FP signal ([1]; compound 3.125e-5 M) of 18. For the same molecule, the FP signal ([1]; compound 6.25e-5 M) was 35, the FP signal ([1]; compound 0.000125 M) was 83 and the FP signal ([1]; compound 0.00025 M) was 142. For the same molecule, the FP signal ([1]; compound 0.0005 M) was 193, the FP signal ([1]; compound 0.001 M) was 240 and the “Fluorescence polarization signal, 14-3-3β titration” value (from here on “Fluorescence polarization signal”) ([2]; CY compound (100 μM), 14-3-3β concentration 3.05176e-8 M) was 2.667. For the same molecule, the “Fluorescence polarization signal” value ([2]; CY compound (100 μM), 14-3-3β concentration 6.10352e-8 M) was 5.667 and 3.667 and 4.667, the “Fluorescence polarization signal” value ([2]; CY compound (100 μM), 14-3-3β concentration 2.44141e-7 M) was 10.6667 and 8.667 and the “Fluorescence polarization signal” value ([2]; CY compound (100 μM), 14-3-3β concentration 4.88281e-7 M) was 20.6667 and 17.6667 and 18.6667. For the same molecule, the “Fluorescence polarization signal” value ([2]; CY compound (100 μM), 14-3-3β concentration 9.76563e-7 M) was 35.6667 and 31.6667 and 32.6667, the “Fluorescence polarization signal” value ([2]; CY compound (100 μM), 14-3-3β concentration 1.95313e-6 M) was 46.6667 and 44.6667 and 41.6667 and the “Fluorescence polarization signal” value ([2]; CY compound (100 μM), 14-3-3β concentration 3.90625e-6 M) was 61.6667 and 57.6667 and 56.6667. For the same molecule, the “Fluorescence polarization signal” value ([2]; CY compound (100 μM), 14-3-3β concentration 7.8125e-6 M) was 73.6667 and 74.6667 and 72.6667, the “Fluorescence polarization signal” value [2, 3] was 84.6667 and 82.6667 and 83.6667 and the “Fluorescence polarization signal” value [2, 4] was 94.6667 and 91.6667 and 92.6667. For the same molecule, the “Fluorescence polarization signal” value [2, 5] was 107.667 and 108.667, the “Fluorescence polarization signal” value [2, 6] was 115.667 and 120.667 and 113.667 and the “Fluorescence polarization signal” value [2, 7] was 128.667 and 129.667. The “Fluorescence polarization signal” value [2, 8] was 146.667 and 147.667, the “Fluorescence polarization signal” value ([2]; FC-A + CY compound, 14-3-3β concentration 7.62939e-9 M) was 2 and 1 and the “Fluorescence polarization signal” value ([2]; FC-A + CY compound, 14-3-3β concentration 6.10352e-8 M) was 9 and 13 and 12. For the same molecule, the “Fluorescence polarization signal” value ([2]; FC-A + CY compound, 14-3-3β concentration 1.2207e-7 M) was 23, the “Fluorescence polarization signal” value ([2]; FC-A + CY compound, 14-3-3β concentration 2.44141e-7 M) was 39 and 43 and 40 and the “Fluorescence polarization signal” value ([2]; FC-A + CY compound, 14-3-3β concentration 4.88281e-7 M) was 61 and 66 and 64. The “Fluorescence polarization signal” value ([2]; FC-A + CY compound, 14-3-3β concentration 9.76563e-7 M) was 90 and 91, the “Fluorescence polarization signal” value ([2]; FC-A + CY compound, 14-3-3β concentration 1.95313e-6 M) was 115 and 116 and the “Fluorescence polarization signal” value ([2]; FC-A + CY compound, 14-3-3β concentration 3.90625e-6 M) was 131 and 135 and 137. For the same molecule, the “Fluorescence polarization signal” value ([2]; FC-A + CY compound, 14-3-3β concentration 7.8125e-6 M) was 145 and 142 and 147, the “Fluorescence polarization signal” value [2, 9] was 154 and 157 and the “Fluorescence polarization signal” value [2, 10] was 158 and 155 and 159. For the same molecule, the “Fluorescence polarization signal” value [2, 11] was 165 and 162, the “Fluorescence polarization signal” value [2, 12] was 160 and 162 and 164 and the “Fluorescence polarization signal” value [2, 13] was 164 and 166 and 167. The “Fluorescence polarization signal” value [2, 14] was 172 and 174 and 170.

For `N=C(N)NCCCC1NCc2ccccc2Sc2ccccc2CNC(=O)C(Cc2ccc(O)cc2)NC(=O)C(CCCN)NC1=O` (stereo not drawn) [CY007424], the EC50 [1] was 36.1 µM and 36 µM, the FP signal ([1]; compound 476.8 pM) was 4 and the FP signal ([1]; compound 953.7 pM) was 5. For the same molecule, the FP signal ([1]; compound 1.90735e-9 M) was 5, the FP signal ([1]; compound 3.8147e-9 M) was 7 and the FP signal ([1]; compound 7.6294e-9 M) was 4. The FP signal ([1]; compound 1.52588e-8 M) was 7, the FP signal ([1]; compound 3.05176e-8 M) was 6 and the FP signal ([1]; compound 6.10352e-8 M) was 5. For the same molecule, the FP signal ([1]; compound 1.2207e-7 M) was 5, the FP signal ([1]; compound 2.44141e-7 M) was 7 and the FP signal ([1]; compound 4.88281e-7 M) was 7. For the same molecule, the FP signal ([1]; compound 9.76563e-7 M) was 7, the FP signal ([1]; compound 1.95313e-6 M) was 6 and the FP signal ([1]; compound 3.90625e-6 M) was 12. The FP signal ([1]; compound 7.8125e-6 M) was 27, the FP signal ([1]; compound 1.5625e-5 M) was 52 and the FP signal ([1]; compound 3.125e-5 M) was 122. The FP signal ([1]; compound 6.25e-5 M) was 193, the FP signal ([1]; compound 0.000125 M) was 244 and the FP signal ([1]; compound 0.00025 M) was 263. For the same molecule, the FP signal ([1]; compound 0.0005 M) was 257, the FP signal ([1]; compound 0.001 M) was 271 and the “stabilization factor (increase of apparent affinity of CFTR peptide to 14-3-3)” value ([2]; 100 μM compound, vs […] μM without compound) was “more than 300 x”.

Molecule `N=C(N)NCCCC1NC(=O)C(CCC(N)=O)NC(=O)C(CCCNC(=N)N)NC(=O)C2CCCN2Cc2cccc(c2)-c2ccccc2CNC1=O` (stereo not drawn) [CY007458] has an EC50 [1] of 151 µM, an FP signal ([1]; compound 476.8 pM) of 6 and an FP signal ([1]; compound 953.7 pM) of 5. The FP signal ([1]; compound 1.90735e-9 M) was 4, the FP signal ([1]; compound 3.8147e-9 M) was 5 and the FP signal ([1]; compound 7.6294e-9 M) was 7. The FP signal ([1]; compound 1.52588e-8 M) was 4, the FP signal ([1]; compound 3.05176e-8 M) was 6 and the FP signal ([1]; compound 6.10352e-8 M) was 5. It also gave an FP signal ([1]; compound 1.2207e-7 M) of 4, an FP signal ([1]; compound 2.44141e-7 M) of 5 and an FP signal ([1]; compound 4.88281e-7 M) of 6. For the same molecule, the FP signal ([1]; compound 9.76563e-7 M) was 6, the FP signal ([1]; compound 1.95313e-6 M) was 5 and the FP signal ([1]; compound 3.90625e-6 M) was 8. For the same molecule, the FP signal ([1]; compound 7.8125e-6 M) was 11, the FP signal ([1]; compound 1.5625e-5 M) was 15 and the FP signal ([1]; compound 3.125e-5 M) was 33. For the same molecule, the FP signal ([1]; compound 6.25e-5 M) was 65, the FP signal ([1]; compound 0.000125 M) was 124 and the FP signal ([1]; compound 0.00025 M) was 179. The FP signal ([1]; compound 0.0005 M) was 221, the FP signal ([1]; compound 0.001 M) was 252 and the “Fluorescence polarization signal” value [2, 3] was 76.6667. For the same molecule, the “Fluorescence polarization signal” value [2, 4] was 83.6667 and 85.6667, the “Fluorescence polarization signal” value [2, 5] was 102.667 and 98.6667 and 101.667 and the “Fluorescence polarization signal” value [2, 6] was 115.667 and 111.667 and 118.667. For the same molecule, the “Fluorescence polarization signal” value [2, 7] was 131.667 and 136.667 and 132.667, the “Fluorescence polarization signal” value [2, 8] was 153.667 and 151.667 and 152.667 and the “Fluorescence polarization signal” value [2, 9] was 140.333 and 143.333 and 144.333. The “Fluorescence polarization signal” value [2, 10] was 147.333 and 148.333 and 150.333, the “Fluorescence polarization signal” value [2, 11] was 156.333 and the “Fluorescence polarization signal” value [2, 12] was 159.333 and 161.333 and 160.333. The “Fluorescence polarization signal” value [2, 13] was 164.333 and 167.333 and the “Fluorescence polarization signal” value [2, 14] was 175.333 and 176.333 and 172.333.
